Drawing on ChEMBL document CHEMBL5260832, “Hepatoprotective natural triterpenoids” (Eur J Med Chem, 2018), this text covers Activity for eight compounds.

Data set [1] deals with Huh-7. The data set can be described thus: Hepatoprotective activity in human Huh-7 cells assessed as reduction in ALT level. On the set-up: scale not given: the % may be the effect or the level left. Format: functional.
Data set [2] has as its system Huh-7. The experiment in a line: Hepatoprotective activity in human Huh-7 cells assessed as increasing in GSH level. In kind it is functional.
The test system of data set [3] is Huh-7. The data set can be described thus: Hepatoprotective activity in human Huh-7 cells assessed as reduction in AST level. On the set-up: scale not given: the % may be the effect or the level left. In kind it is functional.
Data set [4] in a line: Hepatotoxicity in GaIN-induced rat model of liver injury assessed as reduction in ALT level at 4 mg/kg relative to control. In kind it is toxicity, organism-based. On the set-up: scale not given: the % may be the effect or the level left. As to conditions: in vivo.
The test system of data set [5] is Rattus norvegicus. The data set can be described thus: Hepatoprotective activity in CCl4-induced rat model assessed as elevated level of GPT at 10 mg/kg relative to control. Format: functional.
The test system of data set [6] is Rattus norvegicus. The experiment in a line: Hepatoprotective activity in CCl4-induced rat model assessed as elevated level of GOT at 10 mg/kg relative to control. Format: functional.
Data set [7] concerns Rattus norvegicus. The experiment in a line: Hepatoprotective activity in CCl4-induced rat model assessed as elevated level of GOT at 20 mg/kg relative to control. Format: functional.
For data set [8], the system named is Rattus norvegicus. The experiment in a line: Hepatoprotective activity in CCl4-induced rat model assessed as elevated level of GPT at 20 mg/kg relative to control. Format: functional.
The test system of data set [9] is Rattus norvegicus. The experiment in a line: Hepatoprotective activity in CCl4-induced rat model assessed as elevated level of bilirubin at 20 mg/kg relative to control. Format: functional.
For data set [10], the system named is Rattus norvegicus. The data set can be described thus: Hepatoprotective activity in CCl4-induced rat model assessed as elevated level of ALP at 10 mg/kg relative to control. Format: functional.
Data set [11] has as its system Rattus norvegicus. The experiment in a line: Hepatoprotective activity in CCl4-induced rat model assessed as elevated level of ALP at 20 mg/kg relative to control. In kind it is functional.
The test system of data set [12] is Rattus norvegicus. The data set can be described thus: Hepatoprotective activity in CCl4-induced rat model assessed as elevated level of bilirubin at 10 mg/kg relative to control. Format: functional.
Data set [13] concerns Mus musculus. The experiment in a line: Hepatoprotective activity against CCl4-induced mouse acute liver injury model assessed as decreased sGPT level at 15 mg/kg, ip relative to control. Format: functional. On the set-up: scale not given: the % may be the effect or the level left.
Data set [14] deals with Mus musculus. The experiment in a line: Hepatoprotective activity against CCl4-induced mouse acute liver injury model assessed as decreased AP level at 15 mg/kg, ip relative to control. Format: functional. On the set-up: scale not given: the % may be the effect or the level left.
Data set [15] deals with Mus musculus. The data set can be described thus: Hepatoprotective activity against CCl4-induced mouse chronic liver injury model assessed as decreased sGOT level at 15 mg/kg, ip relative to control. In kind it is functional. On the set-up: scale not given: the % may be the effect or the level left.
Data set [16] has as its system Mus musculus. The data set can be described thus: Hepatoprotective activity against CCl4-induced mouse chronic liver injury model assessed as decreased LDH level at 15 mg/kg, ip relative to control. Format: functional. On the set-up: scale not given: the % may be the effect or the level left.
Data set [17] relates to Mus musculus. The data set can be described thus: Hepatoprotective activity against CCl4-induced mouse acute liver injury model assessed as decreased sGOT level at 15 mg/kg, ip relative to control. Format: functional. On the set-up: scale not given: the % may be the effect or the level left.
Data set [18] has as its system Mus musculus. The experiment in a line: Hepatoprotective activity against CCl4-induced mouse chronic liver injury model assessed as decreased AP level at 15 mg/kg, ip relative to control. On the set-up: scale not given: the % may be the effect or the level left. In kind it is functional.
In data set [19] the test system is Mus musculus. The experiment in a line: Hepatoprotective activity against CCl4-induced mouse chronic liver injury model assessed as decreased sGPT level at 15 mg/kg, ip relative to control. In kind it is functional. On the set-up: scale not given: the % may be the effect or the level left.
The test system of data set [20] is Mus musculus. The experiment in a line: Hepatoprotective activity against CCl4-induced mouse acute liver injury model assessed as decreased LDH level at 15 mg/kg, ip relative to control. On the set-up: scale not given: the % may be the effect or the level left. Format: functional.
Data set [21] in a line: Antiproliferative activity against rat HSC-T6 assessed as reduction in cell viability at 100 uM measured at 48 hrs by MTT assay relative to control. Format: functional.
In data set [22] the test system is Hepatocyte. The experiment in a line: Hepatoprotective activity against CCL4-induced rat hepatocyte toxicity assessed as decrease in IL-1beta level at 0.1 mg/mL relative to control. Format: functional. On the set-up: scale not given: the % may be the effect or the level left.
Data set [23] deals with Hepatocyte. The experiment in a line: Hepatoprotective activity against D-GaIN-induced toxicity in mouse hepatocytes at 3 uM relative to control. In kind it is functional.
For data set [24], the system named is Hepatocyte. The data set can be described thus: Hepatoprotective activity against D-GaIN-induced toxicity in mouse hepatocytes at 30 uM relative to control. In kind it is functional.
Data set [25] has as its system Hepatocyte. The data set can be described thus: Hepatoprotective activity against D-GaIN-induced toxicity in mouse hepatocytes at 100 uM relative to control. Format: functional.
Data set [26] concerns Hepatocyte. The experiment in a line: Hepatoprotective activity against D-GaIN-induced toxicity in mouse hepatocytes at 10 uM relative to control. In kind it is functional.
A short description of data set [27]: Hepatotoxicity in CCl4-induced liver damage in ICR mouse model assessed as reduction in sGPT level at 10 mg/kg relative to control. In kind it is toxicity, organism-based. On the set-up: scale not given: the % may be the effect or the level left. As to conditions: in vivo.
Data set [28] in a line: Hepatotoxicity in CCl4-induced liver damage in ICR mouse model assessed as reduction in sGOT level at 10 mg/kg relative to control. On the set-up: scale not given: the % may be the effect or the level left. As to conditions: in vivo. In kind it is toxicity, organism-based.

Turning to `C[C@H]1[C@H](C)CC[C@]2(C(=O)O)CC[C@]3(C)C(=CC[C@@H]4[C@@]5(C)CC[C@H](O)C(C)(C)[C@@H]5CC[C@]43C)[C@H]12` [URSOLIC ACID], the Activity in the data set with Huh-7 [1] amounted to 37.5%; with Huh-7 [2], 2.37 mg; in the data set on Huh-7 [3], 37.5%.

Take `COC(=O)[C@]12CC[C@@H](C)[C@H](C)[C@H]1C1=CC[C@@H]3[C@@]4(C)C[C@@H](OCc5ccccc5)C5OC(C)(C)OC[C@@]5(C)[C@@H]4CC[C@@]3(C)[C@]1(C)CC2` (stereo partly drawn): in data set [4], the Activity was found to be 33.6%.

As to `CC(C)[C@@H]1CC[C@@H]2C3=CC[C@@H]4[C@@]5(C)CC[C@@H](O)C(C)(C)[C@@H]5CC[C@@]4(C)[C@]3(C)CC[C@]21C(=O)O`, the Activity in the data set with Rattus norvegicus [5] was 24%; in the data set on Rattus norvegicus [6], 13%; in the data set with Rattus norvegicus [7] it was 21%; with Rattus norvegicus [8] it was 13%; in the data set with Rattus norvegicus [9], 24%; with Rattus norvegicus [10], 5%. The Activity with Rattus norvegicus [11] amounted to 32%; with Rattus norvegicus [12], 30%.

For `CC1(C)CC[C@]2(C)CC[C@]3(C)C(=CC[C@@H]4[C@@]5(C)CCC(=O)C(C)(C)[C@@H]5C(O)C[C@]43C)[C@@H]2C1` (stereo partly drawn), the Activity amounted to 45.3% in the data set on Mus musculus [13]; 40.6% in the data set with Mus musculus [14]; 38.8% in the data set with Mus musculus [15]; 24.8% with Mus musculus [16]; 51.3% with Mus musculus [17]; 55.3% in the data set on Mus musculus [18]. Moreover, the Activity with Mus musculus [19] is 36.4%; in the data set on Mus musculus [20] it was 45%.

`C[C@H]1[C@@H](O)CC[C@@H]2[C@]1(C)CC[C@H]1[C@@]2(C)CC[C@@]2(C)[C@@H]3CC(C)(C)CC[C@]3(C)CC[C@]12C` [EPIFRIEDELINOL]: the Activity in [21] came out at 61%.

For `C[C@H]1O[C@@H](O[C@H]2CC[C@@]3(C)[C@@H](CC[C@]4(C)[C@@H]3C=C[C@]35OC[C@@]6(CCC(C)(C)C[C@H]63)[C@@H](O)C[C@]54C)[C@]2(C)CO)[C@H](O[C@@H]2O[C@H](CO)[C@@H](O)[C@H](O)[C@H]2O)[C@@H](O[C@@H]2O[C@H](CO)[C@@H](O)[C@H](O)[C@H]2O)[C@H]1O` [BUDDLEJASAPONIN IV], in the data set with Hepatocyte [22], the Activity is listed as 74.96%.

Regarding `CC1(C)CC[C@]2(C(=O)O[C@@H]3O[C@H](CO)[C@@H](O)[C@H](O)[C@H]3O)CC[C@]3(C)C(=CC[C@@H]4[C@@]5(C)C[C@@H](O)[C@H](O)C(C)(C)[C@@H]5CC[C@]43C)[C@@H]2[C@@H]1O`, the Activity in the data set with Hepatocyte [23] is reported as 11.1%; in the data set on Hepatocyte [24] it was 25.2%; with Hepatocyte [25] it was 15.6%; in the data set on Hepatocyte [26] it was 24.5%.

As for `C=C(C)[C@@H]1CC[C@]2(C)CC[C@]3(C)[C@H](CC[C@@H]4[C@@]5(C)CC[C@@H](OC(=O)CCCCCCCCCCCCCCC)C(C)(C)[C@@H]5CC[C@]43C)[C@@H]12`, the Activity is 6.9% in [27] and 9.2% in [28].
